Test results from patent US20240398771A1, “TREATMENT OF SCLERODERMA AND RAYNAUD'S SYNDROME” (Aisa Pharma, Inc., priority 2023, published 2024).

Tests used:
[1] = tested on: participants with SSc-RP; experiment: Average duration of weekly symptomatic RP attacks (minutes); type: in vivo, human; settings: ITT Part A, Baseline RCS subgroup 1 (Table B-3, stratum not given), last 7 days of screening period
From the text: (§1) The relevant metrics measured by this tool daily are: • Study medication • SSc-RP symptoms (Reporting an attack including duration of attack) • Severity of the attack considering all symptoms of the attack e.g. tingling, numbness, pain, color changes (VAS 0-10 cm scale) • Participant's location at the time of the attack (inside home/outside home) • Selecting symptoms experienced during the attack (tingling, numbness, pain, color changes, other) • Pain rating during the attack (11-point Likert scale) • The RCS based on how much difficulty participants had with Raynaud's today, how many attacks the participant had, and how long they lasted. Participants will also be asked to consider how much pain, numbness, or other symptoms the Raynaud's caused in fingers (including painful sores), and how much the Raynaud's alone affected the use of hands today (VAS 0-10 cm scale).
(§2) The absolute change in average duration of weekly RP attacks from baseline to the end of each dosing period was and will be a secondary outcome variable. The sponsor-developed participant-informed diary was and will be used to record data. Average duration of weekly RP attacks is defined as the total duration of RP attacks divided by total number of RP attacks within the last 7 days of each dosing period. Total duration of RP attacks during the last 7 days of screening period divided by the total number of RP attacks will be used as baseline for the analysis of all periods. The variable will be calculated similar to frequency data as before.

[2] = tested on: participants with SSc-RP; experiment: Average duration of weekly RP attacks, all attacks (minutes); type: in vivo, human; settings: for Average duration of weekly RP attacks (All Attacks), Baseline, Max / Average duration of weekly RP attacks (All Attacks), Baseline, Min / Average duration of weekly RP attacks (All Attacks), Baseline, Q1 / Average duration of weekly RP attacks (All Attacks), Baseline, Q3 / Average duration of weekly RP attacks (All Attacks), Baseline / Average duration of weekly RP attacks (All Attacks), Baseline, Mean / Average duration of weekly RP attacks (All Attacks), Baseline, Median: last 7 days of screening period
From the text: as §1, §2

[3] = Excluding Outliers, ITT Population - Part A (Table B-6), last 7 days of dosing period, listed as Cilnidipine 10 mg
[4] = Excluding Outliers, ITT Population - Part A (Table B-6), last 7 days of dosing period, listed as Cilnidipine 20 mg
[5] = Excluding Outliers, ITT Population - Part A (Table B-6), last 7 days of dosing period, listed as Pooled Cilnidipine
[6] = Excluding Outliers, ITT Population - Part A (Table B-6), listed as Cilnidipine 10 mg
[7] = Excluding Outliers, ITT Population - Part A (Table B-6), listed as Cilnidipine 20 mg
[8] = Excluding Outliers, ITT Population - Part A (Table B-6), listed as Pooled Cilnidipine
[9] = ITT Population - Part A (Table B-5), last 7 days of dosing period, listed as Cilnidipine 10 mg
[10] = ITT Population - Part A (Table B-5), last 7 days of dosing period, listed as Cilnidipine 20 mg
[11] = ITT Population - Part A (Table B-5), last 7 days of dosing period, listed as Pooled Cilnidipine
[12] = ITT Population - Part A (Table B-5), listed as Cilnidipine 10 mg
[13] = ITT Population - Part A (Table B-5), listed as Cilnidipine 20 mg
[14] = ITT Population - Part A (Table B-5), listed as Pooled Cilnidipine

COCCOC(=O)C1=C(C)NC(C)=C(C(=O)OC/C=C/c2ccccc2)C1c1cccc([N+](=O)[O-])c1 (stereo not shown) [Cilnidipine, 1,4-dihydro-2,6-dimethyl,4-(3-nitrophenyl)-3,5-pyridinedicarboxylic acid 2-methoxyethyl (2 E)-3-phenyl-2-propenyl ester]
Average duration of weekly symptomatic RP attacks, Baseline ([1]; listed as Cilnidipine 20 mg): 13.3 min
Average duration of weekly symptomatic RP attacks, Baseline, Max ([1]; listed as Cilnidipine 20 mg): 26.4 min
Average duration of weekly symptomatic RP attacks, Baseline, Mean ([1]; listed as Cilnidipine 20 mg): 19.86 min
Average duration of weekly symptomatic RP attacks, Baseline, Median ([1]; listed as Cilnidipine 20 mg): 19.86 min
Average duration of weekly symptomatic RP attacks, Baseline, Q1 ([1]; listed as Cilnidipine 20 mg): 13.33 min
Average duration of weekly symptomatic RP attacks, Baseline, Q3 ([1]; listed as Cilnidipine 20 mg): 26.39 min
Average duration of weekly symptomatic RP attacks, Baseline ([1]; listed as Pooled Cilnidipine): 13.3 min
Average duration of weekly symptomatic RP attacks, Baseline, Max ([1]; listed as Pooled Cilnidipine): 48.4 min
Average duration of weekly symptomatic RP attacks, Baseline, Mean ([1]; listed as Pooled Cilnidipine): 29.37 min
Average duration of weekly symptomatic RP attacks, Baseline, Median ([1]; listed as Pooled Cilnidipine): 26.39 min
Average duration of weekly symptomatic RP attacks, Baseline, Q1 ([1]; listed as Pooled Cilnidipine): 13.33 min
Average duration of weekly symptomatic RP attacks, Baseline, Q3 ([1]; listed as Pooled Cilnidipine): 48.38 min
Average Duration of weekly RP attacks (All Attacks), Max [2, 3]: 31.5, 31.5 minutes
Average Duration of weekly RP attacks (All Attacks), Min [2, 3]: 31.5, 31.5 minutes
Average duration of weekly RP attacks (All Attacks), Change from Baseline, Max [2, 3]: −8.5, −8.5 minutes
Average duration of weekly RP attacks (All Attacks), Change from Baseline, Min [2, 3]: −8.5, −8.5 minutes
Average duration of weekly RP attacks (All Attacks), Change from Baseline, Q1 [2, 3]: −8.48, −8.48 minutes
Average duration of weekly RP attacks (All Attacks), Change from Baseline, Q3 [2, 3]: −8.48, −8.48 minutes
Average duration of weekly RP attacks (All Attacks), Percent Change from Baseline, Max [2, 3]: −21.2, −21.2%
Average Duration of weekly RP attacks (All Attacks) [2, 4]: 3.0 min
Average Duration of weekly RP attacks (All Attacks), Max [2, 4]: 30.5 min
Average Duration of weekly RP attacks (All Attacks), Q1 [2, 4]: 3.00 min
Average duration of weekly RP attacks (All Attacks), Change from Baseline [2, 4]: -7.6 min
Average duration of weekly RP attacks (All Attacks), Change from Baseline, Max [2, 4]: 5.5 min
Average duration of weekly RP attacks (All Attacks), Change from Baseline, Q3 [2, 4]: 5.45 min
Average duration of weekly RP attacks (All Attacks), Percent Change from Baseline, Max [2, 4]: 21.8%
Average duration of weekly RP attacks (All Attacks), Percent Change from Baseline, Min [2, 4]: −71.8%
Average duration of weekly RP attacks (All Attacks), Percent Change from Baseline, Q1 [2, 4]: −71.76%
Average duration of weekly RP attacks (All Attacks), Percent Change from Baseline, Q3 [2, 4]: 21.82%
Average Duration of weekly RP attacks (All Attacks) [2, 5]: 3.0 min
Average Duration of weekly RP attacks (All Attacks), Max [2, 5]: 31.5 min
Average Duration of weekly RP attacks (All Attacks), Q1 [2, 5]: 3.00 min
Average duration of weekly RP attacks (All Attacks), Change from Baseline [2, 5]: -8.5 min
Average duration of weekly RP attacks (All Attacks), Change from Baseline, Max [2, 5]: 5.5 min
Average duration of weekly RP attacks (All Attacks), Change from Baseline, Q1 [2, 5]: -8.48 min
Average duration of weekly RP attacks (All Attacks), Change from Baseline, Q3 [2, 5]: 5.45 min
Average duration of weekly RP attacks (All Attacks), Percent Change from Baseline, Max [2, 5]: 21.8%
Average duration of weekly RP attacks (All Attacks), Percent Change from Baseline, Min [2, 5]: −71.8%
Average duration of weekly RP attacks (All Attacks), Percent Change from Baseline, Q1 [2, 5]: −71.76%
Average duration of weekly RP attacks (All Attacks), Percent Change from Baseline, Q3 [2, 5]: 21.82%
Average duration of weekly RP attacks (All Attacks), Baseline, Max [2, 6]: 40.0, 40.0 minutes
Average duration of weekly RP attacks (All Attacks), Baseline, Min [2, 6]: 40.0, 40.0 minutes
Average duration of weekly RP attacks (All Attacks), Baseline, Q1 [2, 6]: 40.00, 40.00 minutes
Average duration of weekly RP attacks (All Attacks), Baseline, Q3 [2, 6]: 40.00, 40.00 minutes
Average duration of weekly RP attacks (All Attacks), Baseline [2, 7]: 10.6 min
Average duration of weekly RP attacks (All Attacks), Baseline, Max [2, 7]: 25.0 min
Average duration of weekly RP attacks (All Attacks), Baseline, Q1 [2, 7]: 10.63 min
Average duration of weekly RP attacks (All Attacks), Baseline, Q3 [2, 7]: 25.00 min
Average duration of weekly RP attacks (All Attacks), Baseline [2, 8]: 10.6 min
Average duration of weekly RP attacks (All Attacks), Baseline, Max [2, 8]: 40.0 min
Average duration of weekly RP attacks (All Attacks), Baseline, Mean [2, 8]: 25.21 min
Average duration of weekly RP attacks (All Attacks), Baseline, Median [2, 8]: 25.00 min
Average duration of weekly RP attacks (All Attacks), Baseline, Q1 [2, 8]: 10.63 min
Average duration of weekly RP attacks (All Attacks), Baseline, Q3 [2, 8]: 40.00 min
Average Duration of weekly RP attacks (All Attacks), Max [2, 9]: 31.5, 31.5 minutes
Average Duration of weekly RP attacks (All Attacks), Min [2, 9]: 31.5, 31.5 minutes
Average duration of weekly RP attacks (All Attacks), Change from Baseline, Max [2, 9]: −8.5, −8.5 minutes
Average duration of weekly RP attacks (All Attacks), Change from Baseline, Min [2, 9]: −8.5, −8.5 minutes
Average Duration of weekly RP attacks (All Attacks) [2, 10]: 3.0 min
Average Duration of weekly RP attacks (All Attacks), Max [2, 10]: 30.5 min
Average Duration of weekly RP attacks (All Attacks), Q1 [2, 10]: 3.00 min
Average duration of weekly RP attacks (All Attacks), Change from Baseline [2, 10]: -7.6 min
Average duration of weekly RP attacks (All Attacks), Change from Baseline, Max [2, 10]: 5.5 min
Average duration of weekly RP attacks (All Attacks), Change from Baseline, Q3 [2, 10]: 5.45 min
Average duration of weekly RP attacks (All Attacks), Percent Change from Baseline, Max [2, 10]: 21.8%
Average duration of weekly RP attacks (All Attacks), Percent Change from Baseline, Min [2, 10]: −71.8%
Average duration of weekly RP attacks (All Attacks), Percent Change from Baseline, Q1 [2, 10]: −71.76%
Average duration of weekly RP attacks (All Attacks), Percent Change from Baseline, Q3 [2, 10]: 21.82%
Average Duration of weekly RP attacks (All Attacks) [2, 11]: 3.0 min
Average Duration of weekly RP attacks (All Attacks), Max [2, 11]: 31.5 min
Average Duration of weekly RP attacks (All Attacks), Q1 [2, 11]: 3.00 min
Average duration of weekly RP attacks (All Attacks), Change from Baseline [2, 11]: -8.5 min
Average duration of weekly RP attacks (All Attacks), Change from Baseline, Max [2, 11]: 5.5 min
Average duration of weekly RP attacks (All Attacks), Change from Baseline, Median [2, 11]: -7.63 min
Average duration of weekly RP attacks (All Attacks), Change from Baseline, Q1 [2, 11]: -8.48 min
Average duration of weekly RP attacks (All Attacks), Change from Baseline, Q3 [2, 11]: 5.45 min
Average duration of weekly RP attacks (All Attacks), Percent Change from Baseline, Max [2, 11]: 21.8%
Average duration of weekly RP attacks (All Attacks), Percent Change from Baseline, Min [2, 11]: −71.8%
Average duration of weekly RP attacks (All Attacks), Percent Change from Baseline, Q1 [2, 11]: −71.76%
Average duration of weekly RP attacks (All Attacks), Percent Change from Baseline, Q3 [2, 11]: 21.82%
Average duration of weekly RP attacks (All Attacks), Baseline, Max [2, 12]: 40.0, 40.0 minutes
Average duration of weekly RP attacks (All Attacks), Baseline, Min [2, 12]: 40.0, 40.0 minutes
Average duration of weekly RP attacks (All Attacks), Baseline, Q1 [2, 12]: 40.00, 40.00 minutes
Average duration of weekly RP attacks (All Attacks), Baseline, Q3 [2, 12]: 40.00, 40.00 minutes
Average duration of weekly RP attacks (All Attacks), Baseline [2, 13]: 10.6 min
Average duration of weekly RP attacks (All Attacks), Baseline, Max [2, 13]: 25.0 min
Average duration of weekly RP attacks (All Attacks), Baseline, Q1 [2, 13]: 10.63 min
Average duration of weekly RP attacks (All Attacks), Baseline, Q3 [2, 13]: 25.00 min
Average duration of weekly RP attacks (All Attacks), Baseline [2, 14]: 10.6 min
Average duration of weekly RP attacks (All Attacks), Baseline, Max [2, 14]: 40.0 min
Average duration of weekly RP attacks (All Attacks), Baseline, Mean [2, 14]: 25.21 min
Average duration of weekly RP attacks (All Attacks), Baseline, Median [2, 14]: 25.00 min
Average duration of weekly RP attacks (All Attacks), Baseline, Q1 [2, 14]: 10.63 min
Average duration of weekly RP attacks (All Attacks), Baseline, Q3 [2, 14]: 40.00 min
